# Measured values: patent US20240287081A1, “PERFLUOROALKANE SUBSTITUTED PYRAZOLO[3,4-D]PYRIMIDIN AND PYRROLO[2,3-D]PYRIMIDIN COMPOUNDS AND USES THEREOF” (ICAHN SCHOOL OF MEDICINE AT MOUNT SINAI, priority 2021, published 2024)
# Entries after “also recorded” stand apart in the source; their conditions may differ.
# Tests used:
# [1] = tested on: RET (WT and M918T); test: NanoBRET cell based target engagement assay; conditions: RET-Nluc in HEK 293T cells; for cellular IC50 against RET, ranking in words: pyrazolo- and pyrrolopyrimidine series
# Method: Assays were completed in duplicate. […] FIG. 8D is a graph of the cell-based target engagement for the indicated compounds against wild-type and M918T RET. IC50 values were determined based on 8-point titration curves of free ligand. Competition assays were completed in technical triplicate against full-length human RET-Nluc expressed in 293T cells, complexed with an active-site fluorescent tracer.
# In this assay, a bioluminescence resonance energy transfer (BRET) signal is generated between nanoLuciferase tagged RET (expressed in HEK 293T cells) and an active-site based fluorescent tracer. […] Using this assay, in vivo binding was determined for a series of compounds against mutant (M918T) and wild-type RET (FIG. 8D).
# [2] = tested on: ptc>dRet^M955T flies; test: Fly rescue assay (Drosophila MTC model ptc>dRet^M955T); type: in vivo; conditions: compound in fly food; for rescue (percent viability of adult flies, adults/pupae×100): 13 d at 25° C.
# Method: Kinase-mutated fly stocks were obtained from Bloomington Drosophila Stock Center (BDSC; Bloomington, IN). The active mutant form of Drosophila Ret (dRet^955T) carries an M955T mutation corresponding to the M918T mutation commonly reported for multiple endocrine neoplasia (MEN) type 2B patients12,14,16,34. The ptc-gal4, UAS-GFP;UAS-dRet^M955T/SM5tub-gal80-TM6B transgenic flies were prepared according to standard protocols and crossed with non-transgenic w-flies (BDSC) to generate ptc-gal4, UAS-GFP; UAS-dRet^M955T(ptc>dRet^M955T) flies for chemical screening.
# All drugs were synthesized in-house. All compounds were dissolved in DMSO (Sigma-Aldrich; St. Louis, MO) and mixed with semi-defined fly medium (BDSC) to make drug food (0.1% final DMSO concentration). For drug screening, ptc>dRet^M955T embryos were raised until adulthood on drug food for 13 d at 25° C. The number of empty pupal cases (i.e., adults) ? that of total pupal cases (P) to determine % viability. Fly randomization was used throughout the assays.
# In this model, compounds are assessed based on their ability to suppress oncogenic Ret^M955T-induced tumors, which can be quantified as ‘rescue’ from lethality. […] The baseline viability of ptc>Ret^1955T flies was calibrated to zero, which creates a high bar for rescue but also reduces false-positive hits. Hundreds of flies are tested per condition (typical n values are […] administered through fly food.
# [3] = tested on: HCC tumor organoids, BC (B-Catenin); test: 3D HCC tumor organoid viability, BC model; type: cell-based; conditions: 5.0 μM, viability three days post drug administration
# Method: (§1) For assays in HCC tumor organoids, 96 well plates were first coated with a 50:50 solution of basal media:Matrigel ([…]), which polymerized for 15 minutes at 37° C. Tumor organoids were taken out of Matrigel, broken, and washed. Tumor organoids were seeded at 1,000 cells per well and were treated the following day with single doses of drugs in technical triplicate. Final DMSO concentrations were kept below 0.5%. Cell viability was measured three days post drug administration with either luminescence from CellTiter-Glo or absorbance at 560 and 590 nm from resazurin. Viability data was analyzed by normalizing individual drug-treated well values to DMSO-treated wells (BC=B-Catenin; SR=sorafenib resistant). Results of 3D HCC cell line data for pyrazolo- and pyrrolopyrimidine compounds at 0.5 μm (FIGS. 22A-F), 0.05 μm (FIGS. 23A-F), and 5.0 μm (FIGS. 24A-F) were obtained. […] In the BC model, at 5.0 μM, the top ten compounds were: APS-8-100-4, APS-8-52-3, APS-8-51-4, APS-7-25-2, APS-8-100-3, APS-8-51-3, APS-8-50-4, APS-8-52-4, and APS-7-38. In the SR model, at 5.0 μM, the top ten compounds were: APS-8-51-3, APS-8-50-4, APS-8-51-4, APS-8-52-3, APS-8-50-3, APS-7-52-2, APS-8-52-4, APS-7-52-1, and APS-8-100-4.
# [4] = tested on: panel of 468 purified human kinases; test: In vitro kinase percent inhibition, panel of 468 kinases (DiscoverX); type: binding; conditions: 1 μM; for binding to wild-type RET and RET^M918T, in words: kinase panel; for binding profile / selectivity across the kinome, in words: panel of 468 kinases
# Method: Compounds were assayed against a panel of 468 purified human kinases (DiscoverX) to measure percentage inhibition values and derive kinome profiles (FIGS. 3B-3C). All compounds were screened at 1 μM, using two experimental replicates to determine percent inhibition values. Detailed procedures for kinase reactions and assay formats are described at http://www.discoverx.com. Raw data sets for individual compounds were filtered based on the variance of experimental replicates (cutoff=average variance+standard deviation).
# [5] = tested on: HCC tumor organoids, SR (sorafenib resistant); test: 3D HCC tumor organoid viability, SR model; type: cell-based; conditions: 5.0 μM, viability three days post drug administration
# Method: as §1
smiles,measurement,setting,value
"CNC(=O)c1cc(Oc2ccc(NC(=O)Nc3ccc(Cl)c(C(F)(F)F)c3)c(F)c2)ccn1 [regorafenib, reference compound]","cellular IC50 wild-type RET versus M918T mutant, in words",[1],slightly lower IC50 values towards wild-type RET over the M918T mutant
"CC(C)n1nc(-c2ccc(NC(=O)Nc3ccc(C(F)(F)C(F)(F)F)cc3)cc2)c2c(N)ncnc21 [APS-8-100-3, 1-(4-(4-Amino-1-isopropyl-1H-pyrazolo[3,4-d]pyrimidin-3-yl)phenyl)-3-(4-(perfluoroethyl)phenyl)urea]","cellular IC50 against RET, ranking in words",[1],lowest IC50 values among the para-substituted compounds tested
same,"rescue activity in the fly model, in words",[2],exceptional in vivo activity
same,"rescue (percent viability of adult flies, adults/pupae×100)",[2]; baseline viability 0%,100%
same,"ranking by inhibition of cell proliferation, BC model",[3],top ten
CNC(=O)c1cc(Oc2ccc(NC(=O)Nc3ccc(C(C)(F)C(C)(C)C)cc3)cc2)ccn1 (stereo not shown) [compound 44],"rescue (percent viability of adult flies, adults/pupae×100)",[2]; baseline viability 0%,55%
"CC(C)n1nc(-c2ccc(NC(=O)Nc3ccc(C(F)(C(F)(F)F)C(F)(F)C(F)(F)F)cc3)cc2)c2c(N)ncnc21 (stereo not shown) [APS-8-6-2, 1-(4-(4-Amino-1-isopropyl-1H-pyrazolo[3,4-d]pyrimidin-3-yl)phenyl)-3-(4-(perfluorobutan-2-yl)phenyl)urea]","binding to wild-type RET and RET^M918T, in words",[4],more potent than 43 on wild-type and mutant RET
same,"binding to wild-type RET and RET^M918T, in words",[4]; listed as 8-6-2,highly potent on both wild-type and RET^M918T
same,"binding profile / selectivity across the kinome, in words",[4],generally promiscuous KI
same,"binding profile / selectivity across the kinome, in words",[4]; listed as 8-6-2,overall selectivity profile in between 4-9-8 and 8-82-1
same,"cellular IC50 against RET, ranking in words",[1],highest IC50 values
same,"rescue activity in the fly model, in words",[2],one of the highest rescues in the MTC fly assay; also recorded: exceptional in vivo activity
same,"rescue (percent viability of adult flies, adults/pupae×100)","[2]; baseline viability 0%, listed as 65",99%
"CC(C)n1cc(-c2ccc(NC(=O)Nc3ccc(C(F)(F)C(F)(F)C(F)(F)C(F)(F)F)cc3)cc2)c2c(N)ncnc21 [APS-8-52-4, 1-(4-(4-Amino-7-isopropyl-7H-pyrrolo[2,3-d]pyrimidin-5-yl)phenyl)-3-(4-(perfluorobutyl)phenyl)urea]","ranking by inhibition of cell proliferation, SR model",[5],top ten
same,"ranking by inhibition of cell proliferation, BC model",[3],top ten
"CC(C)n1nc(-c2ccc(NC(=O)Nc3ccc(C(F)(F)C(F)(F)C(F)(F)C(F)(F)F)cc3)cc2)c2c(N)ncnc21 [APS-8-52-3, 1-(4-(4-Amino-1-isopropyl-1H-pyrazolo[3,4-d]pyrimidin-3-yl)phenyl)-3-(4-(perfluorobutyl)phenyl)urea]","ranking by inhibition of cell proliferation, SR model",[5],top ten
same,"ranking by inhibition of cell proliferation, BC model",[3],top ten
"CC(C)n1nc(-c2ccc(NC(=O)Nc3cc(C(F)(F)C(F)(F)F)ccc3F)cc2)c2c(N)ncnc21 [APS-5-86-2, 1-(4-(4-Amino-1-isopropyl-1H-pyrazolo[3,4-d]pyrimidin-3-yl)phenyl)-3-(2-fluoro-5-(perfluoroethyl)phenyl)urea]","cellular IC50 wild-type RET versus M918T mutant, in words",[1],not observed
same,"rescue (percent viability of adult flies, adults/pupae×100)",[2]; baseline viability 0%,92%
"CC(C)n1nc(-c2ccc(NC(=O)Nc3ccc(C(F)(C(F)(F)F)C(F)(F)F)cc3)cc2)c2c(N)ncnc21 [APS-8-50-3, 1-(4-(4-Amino-1-isopropyl-1H-pyrazolo[3,4-d]pyrimidin-3-yl)phenyl)-3-(4-(perfluoropropan-2-yl)phenyl)urea]","ranking by inhibition of cell proliferation, SR model",[5],top ten
"COc1ccc(CN2C3CC2CN(c2ccc(-c4cc(OCC(C)(C)O)cn5ncc(C#N)c45)cn2)C3)cn1 [Loxo292, reference compound]","cellular IC50 wild-type RET versus M918T mutant, in words",[1],slightly lower IC50 values towards wild-type RET over the M918T mutant
"CC(C)n1cc(-c2ccc(NC(=O)Nc3cc(C(F)(F)C(F)(F)F)ccc3F)cc2)c2c(N)ncnc21 [APS-7-38, 1-(4-(4-Amino-7-isopropyl-7H-pyrrolo[2,3-d]pyrimidin-5-yl)phenyl)-3-(2-fluoro-5-(perfluoroethyl)phenyl)urea]","ranking by inhibition of cell proliferation, BC model",[3],top ten
"CC(C)n1nc(-c2ccc(NC(=O)Nc3cccc(C(F)(F)C(F)(F)C(F)(F)F)c3)cc2)c2c(N)ncnc21.O=C(O)C(F)(F)F [APS-7-52-1, 1-(4-(4-Amino-1-isopropyl-1H-pyrazolo[3,4-d]pyrimidin-3-yl)phenyl)-3-(3-(perfluoropropyl)phenyl)urea 2,2,2-trifluoroacetate]","ranking by inhibition of cell proliferation, SR model",[5],top ten
"CO[C@]1(C(=O)N[C@@H](C)c2ccc(-n3cc(F)cn3)nc2)CC[C@H](c2nc(C)cc(Nc3cc(C)[nH]n3)n2)CC1 [Blu667, reference compound]","cellular IC50 wild-type RET versus M918T mutant, in words",[1],slightly lower IC50 values towards wild-type RET over the M918T mutant
"CC(C)n1cc(-c2ccc(NC(=O)Nc3ccc(C(F)(C(F)(F)F)C(F)(F)C(F)(F)F)cc3)cc2)c2c(N)ncnc21 (stereo not shown) [APS-8-82-2, 1-(4-(4-Amino-7-isopropyl-7H-pyrrolo[2,3-d]pyrimidin-5-yl)phenyl)-3-(4-(perfluorobutan-2-yl)phenyl)urea 2,2,2-trifluoroacetate]","cellular IC50 against RET, ranking in words",[1],highest IC50 values
same,"rescue activity in the fly model, in words",[2],exceptional in vivo activity
same,"rescue (percent viability of adult flies, adults/pupae×100)","[2]; baseline viability 0%, 2,2,2-trifluoroacetate",100%
"CC(C)n1nc(-c2ccc(NC(=O)Nc3cccc(C(F)(C(F)(F)F)C(F)(F)C(F)(F)F)c3)cc2)c2c(N)ncnc21 (stereo not shown) [APS-8-56-3, 1-(4-(4-Amino-1-isopropyl-1H-pyrazolo[3,4-d]pyrimidin-3-yl)phenyl)-3-(3-(perfluorobutan-2-yl)phenyl)urea 2,2,2-trifluoroacetate]","cellular IC50 against RET, ranking in words",[1],highest IC50 values
"CC(C)n1cc(-c2ccc(NC(=O)Nc3cccc(C(F)(F)C(F)(F)C(F)(F)F)c3)cc2)c2c(N)ncnc21.O=C(O)C(F)(F)F [APS-7-52-2, 1-(4-(4-Amino-7-isopropyl-7H-pyrrolo[2,3-d]pyrimidin-5-yl)phenyl)-3-(3-(perfluoropropyl)phenyl)urea 2,2,2-trifluoroacetate]","ranking by inhibition of cell proliferation, SR model",[5],top ten
"CC(C)n1cc(-c2ccc(NC(=O)Nc3cc(C(F)(C(F)(F)F)C(F)(F)F)ccc3F)cc2)c2c(N)ncnc21 [APS-7-25-2, 1-(4-(4-Amino-7-isopropyl-7H-pyrrolo[2,3-d]pyrimidin-5-yl)phenyl)-3-(2-fluoro-5-(perfluoropropan-2-yl)phenyl)urea]","ranking by inhibition of cell proliferation, BC model",[3],top ten
"CC(C)n1nc(-c2ccc(NC(=O)Nc3cccc(C(F)(F)C(F)(F)C(F)(F)C(F)(F)F)c3)cc2)c2c(N)ncnc21 [APS-7-46-2, 1-(4-(4-Amino-1-isopropyl-1H-pyrazolo[3,4-d]pyrimidin-3-yl)phenyl)-3-(3-(perfluorobutyl)phenyl)urea]","rescue (percent viability of adult flies, adults/pupae×100)",[2]; baseline viability 0%,over 80%
